The values that follow come from patent US20150191462A1, “PYRROLIDINE DERIVATIVES AND THEIR USE AS COMPLEMENT PATHWAY MODULATORS” (priority 2012, published 2015).

In this experiment the target is Recombinant human factor D (Homo sapiens, UniProt P00746). Put plainly: Human Complement Factor D Assay: Method 1. Type of experiment: biochemical. To be noted: Factor D inhibition, 10 nM factor D, Z-Lys-thiobenzyl substrate, fluorescence readout. As for the experimental part:
Human Complement Factor D Assay: Method 1 Recombinant human factor D (expressed in E. coli and purified using standard methods) at 10 nM concentration is incubated with test compound at various concentrations for 1 hour at room temperature in 0.1 M Hepes buffer, pH 7.5, containing 1 mM MgCl2, 1 M NaCl and 0.05% CHAPS. […] The increase in fluorescence is recorded at excitation of 485 nm and emission at 535 nm in a microplate spectrofluorimeter. IC50 values are calculated from percentage of inhibition of complement factor D-activity as a function of test compound concentration.

Chain of Recombinant human factor D (P00746 26-253): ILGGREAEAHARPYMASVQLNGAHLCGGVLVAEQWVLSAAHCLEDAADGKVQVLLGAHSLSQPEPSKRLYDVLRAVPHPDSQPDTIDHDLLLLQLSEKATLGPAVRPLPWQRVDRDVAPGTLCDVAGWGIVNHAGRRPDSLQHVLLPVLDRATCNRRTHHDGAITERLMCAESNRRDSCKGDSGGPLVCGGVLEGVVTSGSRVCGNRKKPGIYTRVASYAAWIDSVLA

On to `NC(=O)c1nn(CC(=O)N2C3CC(C3)C2C(=O)Nc2cccc(Br)n2)c2ccccc12` (centres unmarked) [Example 28, N-(6-bromopyridin-2-yl)-2-(2-(3-carbamoyl-1H-indazol-1-yl)acetyl)-2-azabicyclo[2.1.1]hexane-3-carboxamide], for which the IC50 is 120 nM.
Then `Cc1cc2c(C(N)=O)nn(CC(=O)N3[C@@H]4C[C@@H]4C[C@H]3C(=O)Nc3cccc(C(F)(F)F)n3)c2c(C)n1` [Example 29, 5,7-dimethyl-1-(2-oxo-2-((1R,3S,5R)-3-((6-(trifluoromethyl)pyridin-2-yl)carbamoyl)-2-azabicyclo[3.1.0]hexan-2-yl)ethyl)-1H-pyrazolo[3,4-c]pyridine-3-carboxamide], with 6 nM.
With `Cc1cc2c(C(N)=O)nn(CC(=O)N3[C@@H]4C[C@@H]4C[C@H]3C(=O)Nc3cncc(C(F)(F)F)n3)c2c(C)n1` [Example 30, 5,7-dimethyl-1-(2-oxo-2-((1R,3S,5R)-3-((6-(trifluoromethyl)pyrazin-2-yl)carbamoyl)-2-azabicyclo[3.1.0]hexan-2-yl)ethyl)-1H-pyrazolo[3,4-c]pyridine-3-carboxamide], the IC50 came to 80 nM.
On to `NC(=O)n1cc(NC(=O)N2[C@@H]3C[C@@H]3C[C@H]2C(=O)Nc2cncc(Br)n2)c2ccccc21` [Example 31, (1R,3S,5R)-2-Aza-bicyclo[3.1.0]hexane-2,3-dicarboxylic acid 3-[(6-bromo-pyrazin-2-yl)-amide]2-[(1-carbamoyl-1H-indol-3-yl)-amide]], for which the IC50 came out at 4 nM.
For `Cc1ncc(NC(=O)[C@@H]2C[C@H]3C[C@H]3N2C(=O)Nc2cn(C(N)=O)c3ccccc23)nc1Br` [Example 32, (1R,3S,5R)-2-Aza-bicyclo[3.1.0]hexane-2,3-dicarboxylic acid 3-[(6-bromo-5-methyl-pyrazin-2-yl)-amide] 2-[(1-carbamoyl-1H-indol-3-yl)-amide]] the value was 5 nM; for `C[C@@]1(F)C[C@@H](C(=O)Nc2cccc(Br)n2)N(C(=O)Nc2cn(C(N)=O)c3ccccc23)C1` [Example 34, (2S,4R)-4-Fluoro-4-methyl-pyrrolidine-1,2-dicarboxylic acid 2-[(6-bromo-pyridin-2-yl)-amide] 1-[(1-carbamoyl-1H-indol-3-yl)-amide]], 14 nM.
Then `NC(=O)n1cc(NC(=O)N2CCC[C@H]2C(=O)Nc2cccc(Br)n2)c2ccccc21` [Example 35, (S)-Pyrrolidine-1,2-dicarboxylic acid 2-[(6-bromo-pyridin-2-yl)-amide]-1-[(1-carbamoyl-1H-indol-3-yl)-amide]], with 20 nM.
For `NC(=O)n1cc(NC(=O)N2[C@@H]3C[C@@H]3C[C@H]2C(=O)Nc2cncc(C(F)(F)F)n2)c2ccccc21` [Example 36, (1R,3S,5R)-2-Aza-bicyclo[3.1.0]hexane-2,3-dicarboxylic acid 2-[(1-carbamoyl-1H-indol-3-yl)-amide] 3-[(6-trifluoromethyl-pyrazin-2-yl)-amide]] the value was 55 nM; for `C[C@@]12C[C@@H](C(=O)Nc3cccc(Br)n3)N(C(=O)Nc3cn(C(N)=O)c4ccccc34)[C@@H]1C2` [Example 37, (1R,3S,5R)-5-Methyl-2-aza-bicyclo[3.1.0]hexane-2,3-dicarboxylic acid 3-[(6-bromo-pyridin-2-yl)-amide] 2-[(1-carbamoyl-1H-indol-3-yl)-amide]], 8 nM.
Turning to `NC(=O)n1cc(NC(=O)N2C[C@H](F)[C@H](F)[C@H]2C(=O)Nc2cccc(Br)n2)c2ccccc21` [Example 38, (2R,3R,4S)-N2-(6-bromopyridin-2-yl)-N1-(1-carbamoyl-1H-indol-3-yl)-3,4-difluoropyrrolidine-1,2-dicarboxamide], the IC50 turned out to be 10 nM.
Then `NC(=O)n1cc(NC(=O)N2CCS[C@H]2C(=O)Nc2cccc(Br)n2)c2ccccc21` [Example 39, (S)-N2-(6-bromopyridin-2-yl)-N3-(1-carbamoyl-1H-indol-3-yl)thiazolidine-2,3-dicarboxamide], with 20 nM.

What is called IC50 is the concentration at which inhibition is half-maximal.
